{"source": "paper PMC6804233", "about": "“Design and Synthesis of Novel 1,3-Thiazole and 2-Hydrazinyl-1,3-Thiazole Derivatives as Anti-Candida Agents: In Vitro Antifungal Screening, Molecular Docking Study, and Spectroscopic Investigation of their Binding Interaction with Bovine Serum Albumin” (Molecules, 2019)", "target": "T1, bovine serum albumin (BSA) (Bos taurus, UniProt P02769)", "T1 construct": "gene ALB; BSA fraction V", "T1 sequence (P02769 25-607)": "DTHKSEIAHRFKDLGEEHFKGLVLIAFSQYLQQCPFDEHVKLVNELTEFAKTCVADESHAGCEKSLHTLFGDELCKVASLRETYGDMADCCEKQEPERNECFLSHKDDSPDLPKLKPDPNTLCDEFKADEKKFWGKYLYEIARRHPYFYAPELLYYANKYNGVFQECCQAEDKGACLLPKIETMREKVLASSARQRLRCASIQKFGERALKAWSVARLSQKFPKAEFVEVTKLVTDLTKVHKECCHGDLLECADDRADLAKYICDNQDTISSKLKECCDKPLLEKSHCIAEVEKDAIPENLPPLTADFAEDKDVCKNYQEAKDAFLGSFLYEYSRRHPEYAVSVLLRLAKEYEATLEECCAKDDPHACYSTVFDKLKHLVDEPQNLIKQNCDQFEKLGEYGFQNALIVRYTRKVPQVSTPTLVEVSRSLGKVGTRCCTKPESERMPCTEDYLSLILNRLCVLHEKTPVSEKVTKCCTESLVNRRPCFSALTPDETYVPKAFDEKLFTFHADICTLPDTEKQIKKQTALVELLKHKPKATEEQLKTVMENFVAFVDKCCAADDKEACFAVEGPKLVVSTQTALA", "assay": "Intrinsic tryptophan fluorescence quenching titration (Stern–Volmer; double-log plot for Kb), pH […], room temperature", "type": "binding", "details": "read-out: Kb × 10^5 (M^-1) (converted)", "data": [{"compound": "Cc1ccc(-c2csc(NN=C(COc3cc(C)ccc3C(C)C)c3ccccc3)n2)cc1", "note": "[7e, 2-(2-(2-(2-isopropyl-5-methylphenoxy)-1-phenylethylidene)hydrazineyl)-4-(p-tolyl)thiazole]", "values": [{"measurement": "Kd", "result": 4.42, "unit": "µM"}]}]}
